Reference: US10564168B2, “Method for treating male infertility based on NOX5 protein levels in sperm” (priority 2013, dated 2020)

How the values were obtained:
human spermatozoa [1] = assay: Superoxide assay, luminol-based Diogenes chemiluminescence, whole spermatozoa; type: cell-based; details: for effect on ionomycin-induced superoxide chemiluminescence signal: 1 μM ionomycin; for effect on ionomycin-induced superoxide chemiluminescence signal / effect on H2O2-induced superoxide chemiluminescence signal: SOD 400 U/ml, DPI 10 μM, BAPTA 100 μM; for effect on H2O2-induced superoxide chemiluminescence signal: 100 μM H2O2, GKT136901 0.5 μM
Description: (§1) Human semen samples were obtained from patient donors as a part of their clinical evaluation for fertility and reproductive health status. Portions of the samples not required for clinical analyses were de-identified and made available for the research protocols described. Under these conditions, the Institutional Review Board determined that the study is exempt from requirements for protocol approval and informed consent. Semen was collected by masturbation into sterile plastic containers and allowed to liquefy for at least 30 min before being processed. The samples were centrifuged (500 g, 15 min) to separate the seminal plasma from spermatozoa, and the pellet washed twice in phosphate-buffered normal saline pH 7 with 10 mM glucose (PBS-G). The spermatozoa were then counted in a hemocytometer chamber, resuspended in PBS-G at 10^9/ml, and used for superoxide assays. Sperm samples containing leukocytes detected by microscopic examination were excluded from the study. For selected experiments, motile spermatozoa were collected using the swim-up procedure (Vijayakumar et al. (1986) Arch. Androl. 17, 223-230; Parrish and Foote (1987) J. Androl. 8, 259-266). Briefly, the spermatozoa were sedimented by centrifugation (500 g, 15 min) and the tube was then incubated upright for 60 min at 37° C. Motile spermatozoa that progressed from the pellet into the supernatant (swim-up fraction) were collected by aspiration and counted.
Superoxide generation was measured using a luminol-based chemiluminescence assay (Diogenes reagent, National Diagnostics, Atlanta, Ga.). […] Spermatozoa were suspended at 10^9/ml in PBS-G. A 100 μl aliquot of the Diogenes reagent was mixed with 2×10^7 spermatozoa and incubated at 37° C. for 2-4 minutes. Superoxide generation was measured at baseline and after stimulation with ionomycin (1 μM), phorbol myristate acetate (PMA, 1 μg/ml), or H2O2 (100 μM and other concentrations as indicated). Chemiluminescence was measured every 30-60 sec for up to 10-15 min using a Clarity™ BioTek luminometer and an integration time of 5 sec.
Spermatozoa were pre-incubated for 5 min prior to the superoxide assay with 400 U/ml superoxide dismutase (SOD), 10 μM diphenylene iodonium (DPI), or 100 μM 1,2-Bis (2-aminophenoxy) ethane-N,N,N′,N′-tetraacetic acid (BAPTA). […] In some experiments, cells were pre-exposed to the NOX inhibitor 2-(2-chlorophenyl)-4-methyl-5-(pyridin-2-ylmethyl)-1H-pyrazolo[4,3-c]pyridine-3,6(2H,5H)-dione (GKT136901, 0.5 μM and other concentrations as indicated) for 10 min before exposure to either H2O2 or PMA.

human spermatozoa [2] = assay: Swim-up procedure, sperm motility; type: cell-based; details: GKT136901 0.5 μM or DPI 10 μM; 100 μM H2O2
Description: as §1

[3] = system: HV1 proton channels in K562 and K562/NOX5 cells; assay: Perforated-patch clamp recording of proton currents; type: cell-based, human
Description: Micropipettes were pulled in several stages using a Flaming-Brown automatic pipette puller (Sutter Instruments, San Rafael, Calif.) from 7052 glass (Garner Glass Co., Claremont, Calif., USA), coated with Sylgard 184 (Dow Corning Corp., Midland, Mich.), heat polished to a tip resistance between 2 and 10 MΩ. Electrical contact with the pipette solution was achieved using a chloride silver wire. The reference electrode was made from an Ag—AgCl wire connected to the bath through an agar bridge made with Ringer solution (160 mM NaCl, 4.5 mM KCl, 2 mM CaCl2, 1 mM MgCl2, 5 mM Hepes adjusted to pH 7.4). Current signal from the Axopatch 200B (Axon Instruments, Foster City, Calif.) was recorded on PC through a Lab View SCB-68 (National Instruments, Austin, Tex.). Further data analysis was made with Origin 7.5. Seals were formed in Ringer solution in the bath, and the potential was zeroed when the pipette was in contact with the cell. Most measurements were done between 21 and 25° C.
K562 cells were transferred on chips or pipette into the recording chamber. To leave internal signaling pathways undisturbed, the perforated patch configuration was used. Low access resistance was usually reached after 5-10 minutes. The perforated patch recording bath and pipette solution contained 50 mM NH^4+ in the form of (NH4)2SO4, 2 mM MgCl2, 5 mM Bes or Pipes buffer, and 1 mM EGTA adjusted to pH 7.0 with TMAOH. […]

NOX2 = biological target: T1, NOX2 (Homo sapiens, UniProt P04839); details: NOX1 and NOX4 versus NOX2; cited from earlier work
T1 sequence (P04839 2-570 limits assumed): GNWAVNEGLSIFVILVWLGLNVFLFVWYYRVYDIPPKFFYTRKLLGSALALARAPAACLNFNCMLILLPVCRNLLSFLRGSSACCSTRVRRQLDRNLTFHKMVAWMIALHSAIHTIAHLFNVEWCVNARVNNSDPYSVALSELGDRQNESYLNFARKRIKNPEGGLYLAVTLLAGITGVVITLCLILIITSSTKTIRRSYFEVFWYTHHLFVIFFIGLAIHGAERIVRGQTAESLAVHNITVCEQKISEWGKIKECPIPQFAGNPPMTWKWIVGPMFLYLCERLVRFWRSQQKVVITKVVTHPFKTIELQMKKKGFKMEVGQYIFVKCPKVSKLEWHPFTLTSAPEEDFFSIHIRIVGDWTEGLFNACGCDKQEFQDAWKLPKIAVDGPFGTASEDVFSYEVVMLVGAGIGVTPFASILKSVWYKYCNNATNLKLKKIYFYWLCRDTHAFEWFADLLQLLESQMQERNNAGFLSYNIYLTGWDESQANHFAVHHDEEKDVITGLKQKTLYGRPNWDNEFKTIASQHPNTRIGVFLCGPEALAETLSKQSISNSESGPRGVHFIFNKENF
T1 sequence (P13498 1-195 partner): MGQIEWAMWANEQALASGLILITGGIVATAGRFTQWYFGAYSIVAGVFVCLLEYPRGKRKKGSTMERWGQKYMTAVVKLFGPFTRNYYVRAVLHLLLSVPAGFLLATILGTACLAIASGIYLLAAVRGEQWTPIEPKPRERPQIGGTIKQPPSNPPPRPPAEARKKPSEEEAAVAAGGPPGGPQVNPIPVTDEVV

NOX1 = biological target: T2, NOX1 (Homo sapiens, UniProt Q9Y5S8); details: cited from earlier work
T2 sequence (Q9Y5S8 1-564): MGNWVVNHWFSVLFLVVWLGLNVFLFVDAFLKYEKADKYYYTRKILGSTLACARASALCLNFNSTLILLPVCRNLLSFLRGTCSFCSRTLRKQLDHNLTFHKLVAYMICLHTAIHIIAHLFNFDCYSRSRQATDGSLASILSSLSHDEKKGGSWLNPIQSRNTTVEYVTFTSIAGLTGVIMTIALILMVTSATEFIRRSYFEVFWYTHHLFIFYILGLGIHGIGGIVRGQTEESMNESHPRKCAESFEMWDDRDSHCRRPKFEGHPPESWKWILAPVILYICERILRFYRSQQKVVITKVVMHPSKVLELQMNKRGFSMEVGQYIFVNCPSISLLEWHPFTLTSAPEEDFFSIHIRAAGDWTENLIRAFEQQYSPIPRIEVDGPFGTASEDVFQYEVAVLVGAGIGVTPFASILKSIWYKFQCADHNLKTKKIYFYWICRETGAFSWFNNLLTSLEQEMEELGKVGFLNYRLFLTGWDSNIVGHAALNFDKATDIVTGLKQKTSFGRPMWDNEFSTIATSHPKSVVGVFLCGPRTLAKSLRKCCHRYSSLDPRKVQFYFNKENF
T2 sequence (P13498 1-195 partner): T1 sequence (P13498 1-195 partner)

NOX5 = biological target: T3, NOX5 (Homo sapiens, UniProt Q96PH1); details: same conditions as Laleu et al.; GenKyoTex, personal communication; read-out: inhibitory constant for NOX5; cited from earlier work
T3 sequence (Q96PH1 1-765): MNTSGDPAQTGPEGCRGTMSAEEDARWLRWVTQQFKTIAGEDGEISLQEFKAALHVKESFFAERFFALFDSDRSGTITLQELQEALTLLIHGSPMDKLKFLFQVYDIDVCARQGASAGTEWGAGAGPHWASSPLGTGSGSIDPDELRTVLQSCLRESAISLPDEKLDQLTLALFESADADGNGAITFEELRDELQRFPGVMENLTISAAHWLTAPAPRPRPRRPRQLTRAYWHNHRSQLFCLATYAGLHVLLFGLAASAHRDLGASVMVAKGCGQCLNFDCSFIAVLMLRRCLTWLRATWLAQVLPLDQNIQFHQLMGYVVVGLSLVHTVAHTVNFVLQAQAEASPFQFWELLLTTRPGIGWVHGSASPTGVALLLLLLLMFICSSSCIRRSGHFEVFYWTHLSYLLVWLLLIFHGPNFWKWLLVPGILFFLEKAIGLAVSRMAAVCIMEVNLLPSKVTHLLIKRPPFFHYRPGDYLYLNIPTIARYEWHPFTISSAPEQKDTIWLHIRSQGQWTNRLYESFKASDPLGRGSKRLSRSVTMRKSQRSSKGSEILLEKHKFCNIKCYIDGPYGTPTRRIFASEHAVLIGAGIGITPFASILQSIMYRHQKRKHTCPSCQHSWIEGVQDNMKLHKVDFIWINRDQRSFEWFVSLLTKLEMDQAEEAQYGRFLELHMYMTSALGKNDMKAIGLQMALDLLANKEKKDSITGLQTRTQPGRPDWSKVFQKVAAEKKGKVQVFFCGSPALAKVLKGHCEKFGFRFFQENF

O=C(O)CN(CC(=O)O)c1ccccc1OCCOc1ccccc1N(CC(=O)O)CC(=O)O [BAPTA, 1,2-Bis (2-aminophenoxy) ethane-N,N,N′,N′-tetraacetic acid]
effect on ionomycin-induced superoxide chemiluminescence signal (human spermatozoa [1]): blocked
effect on H2O2-induced superoxide chemiluminescence signal (human spermatozoa [1]): nearly completely abrogated

c1ccc2c(c1)[I+]c1ccccc1-2 [DPI, diphenylene iodonium]
effect of pre-incubation on the H2O2 effect on motility (human spermatozoa [2]): abrogated
effect on ionomycin-induced superoxide chemiluminescence signal (human spermatozoa [1]): blocked
effect on H2O2-induced superoxide chemiluminescence signal (human spermatozoa [1]): nearly completely abrogated

CN(C)CCCn1cc(C2=C(c3c[nH]c4ccccc34)C(=O)NC2=O)c2ccccc21 [GFX, GF109203X]
effect on PMA response of proton channels ([3]; GFX 3 μM after 60 nM PMA): Most features of the PMA response of proton channels were reversed

Cc1c2c(=O)n(-c3ccccc3Cl)[nH]c2cc(=O)n1Cc1ccccn1 [GKT136901, 2-(2-chlorophenyl)-4-methyl-5-(pyridin-2-ylmethyl)-1H-pyrazolo[4,3-c]pyridine-3,6(2H,5H)-dione]
selectivity over NOX2 (NOX2): ~9 fold
effect of pre-incubation on the H2O2 effect on motility (human spermatozoa [2]): abrogated
Ki (NOX1): 0.16 ± 0.01 µM
Ki (NOX5): 0.45 ± 0.01 µM
effect on PMA-stimulated superoxide production (human spermatozoa [1]; 1 μg/ml PMA): inhibited the stimulation of superoxide production by PMA in a concentration-dependent manner
effect on H2O2-induced superoxide chemiluminescence signal (human spermatozoa [1]): nearly completely abrogated
potency in inhibiting PMA-stimulated superoxide production, sperm cells as compared with neutrophils (human spermatozoa [1]; human spermatozoa versus human neutrophils): ~10 fold

CCCCCCCCCCCCCC(=O)O[C@@H]1[C@@H](C)[C@@]2(O)[C@@H](C=C(CO)C[C@]3(O)C(=O)C(C)=C[C@@H]23)[C@@H]2C(C)(C)[C@]12OC(C)=O [PMA, phorbol myristate acetate]
response of proton channels to stimulation ([3]; 60 nM PMA): enhanced gating mode

C[C@H](CCC(=O)O)C[C@H](C)C[C@H](C)C(=O)/C=C(\O)[C@H](C)C[C@H](C)C/C=C/[C@@H](C)[C@@H](O)[C@@H](C)[C@@H](O)C[C@@H]1CC[C@@](C)([C@H]2CC[C@@](C)([C@@H](C)O)O2)O1 [ionomycin]
induction of superoxide production by spermatozoa (human spermatozoa [1]; ionomycin 1 μM, PMA 1 μg/ml or H2O2 100 μM, 10 min): induced vigorous superoxide production
